The record followed here is ChEMBL document CHEMBL4002596, “Hydroxylated biphenyls as tyrosinase inhibitor: A spectrophotometric and electrochemical study” (Eur J Med Chem, 2017).

pIC50: −log10 of the molar value. Active and inactive are the calls of the source. No cut-off for these calls is given here. Bounds are passed on as bounds.

Data set [1] has as its target T1, Mushroom tyrosinase (Agaricus bisporus) (UniProt O42713+Q00024+C7FF04+C7FF05). Description: Inhibition of immobilized mushroom tyrosinase diphenolase activity assessed as reduction in caffeic acid oxidation at 50 uM by amperometric tyrosinase biosensor method.
The target of data set [2] is T1, Mushroom tyrosinase (Agaricus bisporus). As to the kind of experiment: Inhibition of mushroom tyrosinase assessed as reduction in caffeic acid oxidation measured after 6 mins by UV-Vis spectrophotometric method.
For data set [3] the target is unchanged. As to the kind of experiment: Inhibition of mushroom tyrosinase monophenolase activity assessed as reduction in lag time of enzymatic reaction at 50 uM using caffeic acid as substrate by amperometric tyrosinase biosensor method.
Data set [4] deals with Lymphocyte. Description: Cytotoxicity against human lymphocytes. In kind it is cell-based.
The target in data set [5] is T1, Mushroom tyrosinase (Agaricus bisporus). As to the kind of experiment: Inhibition of mushroom tyrosinase diphenolase activity assessed as reduction in caffeic acid oxidation measured after 6 mins by UV-Vis spectrophotometric method.
Data set [6] in a line: Aqueous solubility of the compound. The conditions noted are these: buffer. The format is physicochemical.

Regarding `COc1cc(O)cc(-c2cc(O)cc(OC)c2OC)c1OC`, the inhibition result in data set [1] and in data set [2] was “Active” in each case.

For the compound `Oc1ccc2c(c1-c1c(O)ccc3c1OCO3)OCO2`, the inhibition in data set [1] came to 82%. Further, the inhibition result in data set [2] and in data set [3] was “Active” each time.

Turning to `COc1cc(C)c(-c2cc(O)c(OC)cc2C)cc1O`, the inhibition result in data set [1] is “Active”.

Consider `Oc1cccc(O)c1-c1c(O)cccc1O`, for which the inhibition result in data set [1] and in data set [2] was “Active” throughout.

Turning to `C=CCc1cc(-c2ccc(O)c(CC=C)c2)ccc1O`, the inhibition entry in data set [1] and in data set [2] was “Active” throughout. In addition, in data set [4], the pIC50 was > 4.00.

As for `Oc1ccccc1-c1ccccc1O`, the inhibition in data set [1] was 10 to 20%; in data set [2], 10%.

On to `Oc1ccc(-c2ccc(O)c(O)c2)cc1O`, for which the inhibition entry in data set [1] and in data set [2] was “Active” each time. Moreover, the inhibition in data set [5] was 60%. For the same compound, the solubility entry in data set [6] is “Soluble”.

Turning to `Oc1ccc(-c2ccc(O)cc2)cc1`, the inhibition entry in data set [1] and in data set [2] was “Active” each time.

In general, inhibition refers to the change of the read-out against control, counted positive when it falls. For orientation: pIC50 means the IC50 on a negative log10 scale, so that one unit is a factor of ten.
